Data: patent US9346815B2, “5-chloro-2-difluoromethoxyphenyl pyrazolopyrimidine compounds, compositions and methods of use thereof” (Genentech, Inc., priority 2014, dated 2016)
Where a name gives a salt, the structure may show the parent alone.

Experiments:
[1] = molecular target: isolated recombinant JAK1 kinase domain (Homo sapiens (Human), UniProt P23458); test: JAK1 enzyme assay (Caliper LabChip, peptide phosphorylation); type: biochemical; settings: isolated recombinant JAK1 kinase domain, 25 μM ATP
[2] = molecular target: isolated recombinant JAK2 kinase domain (Homo sapiens (Human), UniProt O60674); test: JAK2 enzyme assay (Caliper LabChip, peptide phosphorylation); type: biochemical; settings: 25 μM ATP
[3] = tested on: JAK1-dependent STAT6 phosphorylation downstream of IL-13 stimulation in TF-1 human erythroleukemia cells; test: JAK1 pathway assay in TF-1 cells (IL-13-pSTAT6, MSD); type: cell-based; settings: Homo sapiens, TF-1, TF-1 cells, read-out: IL13-pSTAT6 EC50_TF-1
Procedure: JAK1 Pathway Assay in Cell Lines was Carried Out as Follows:
Inhibitor potency (EC50) was determined in cell-based assays designed to measure JAK1 dependent STAT phosphorylation.
In one assay approach, TF-1 human erythroleukemia cells obtained from the American Type Culture Collection (ATCC; Manassas, Va.) were used to measure JAK1-dependent STAT6 phosphorylation downstream of IL-13 stimulation. Prior to use in the assays, TF-1 cells were starved of GM-CSF overnight in OptiMEM medium (Life Technologies, Grand Island, N.Y.) supplemented with 0.5% charcoal/dextran stripped fetal bovine serum (FBS), 0.1 mM non-essential amino acids (NEAA), and 1 mM sodium pyruvate. The assays were run in 384-well plates in serum-free OptiMEM medium using 300,000 cells per well. In a second assay approach, BEAS-2B human bronchial epithelial cells obtained from ATCC were plated at 100,000 cells per well of a 96-well plate one day prior to the experiment. The BEAS-2B assay was run in complete growth medium (bronchial epithelial basal medium plus bulletkit; Lonza; Basel, Switzerland).
Test compounds were serially diluted 1:2 in DMSO and then diluted 1:50 in medium just before use. Diluted compounds were added to the cells, for a final DMSO concentration of 0.2%, and incubated for 30 min (for the TF-1 assay) or 1 hr (for the BEAS-2B assay) at 37° C. Then, cells were stimulated with human recombinant cytokine at their respective EC90 concentrations, as previously determined for each individual lot. Cells were stimulated with IL-13 (R&D Systems, Minneapolis, Minn.) for 15 min at 37° C. The TF-1 cell reactions were stopped by the direct addition of 10× lysis buffer (Cell Signaling Technologies, Danvers, Mass.), whereas the BEAS-2B cell incubations were halted by the removal of medium and addition of 1× lysis buffer. The resultant samples were frozen in the plates at −80° C. Compound mediated inhibition of STAT6 phosphorylation was measured in the cell lysates using MesoScale Discovery (MSD) technology (Gaithersburg, Md.).

Sequence of isolated recombinant JAK2 kinase domain (O60674 849-1124): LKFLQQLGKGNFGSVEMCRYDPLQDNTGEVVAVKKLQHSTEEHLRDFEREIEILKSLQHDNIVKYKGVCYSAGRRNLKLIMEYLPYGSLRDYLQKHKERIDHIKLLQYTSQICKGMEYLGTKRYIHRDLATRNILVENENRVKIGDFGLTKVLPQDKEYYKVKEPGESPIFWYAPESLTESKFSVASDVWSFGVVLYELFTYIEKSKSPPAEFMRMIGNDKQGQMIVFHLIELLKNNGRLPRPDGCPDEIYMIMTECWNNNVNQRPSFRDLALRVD
Sequence of isolated recombinant JAK1 kinase domain (P23458 875-1153): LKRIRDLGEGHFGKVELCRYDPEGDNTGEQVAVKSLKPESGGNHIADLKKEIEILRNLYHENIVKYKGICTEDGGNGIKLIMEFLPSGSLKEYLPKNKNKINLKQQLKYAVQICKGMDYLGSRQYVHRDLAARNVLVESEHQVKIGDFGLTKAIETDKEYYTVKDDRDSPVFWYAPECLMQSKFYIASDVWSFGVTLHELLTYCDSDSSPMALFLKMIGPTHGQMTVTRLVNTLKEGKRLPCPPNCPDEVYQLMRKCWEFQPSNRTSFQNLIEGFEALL

| SMILES | Ki [1] [nM] | Ki [2] [nM] | EC50 [3] [nM] |
| --- | --- | --- | --- |
| O=C(Nc1cn(CC(=O)N2C[C@H]3CN(CC4CC4)C[C@H]3C2)nc1-c1cc(Cl)ccc1OC(F)F)c1cnn2cccnc12 [Example 6, Cis-pyrazolo[1,5-a]pyrimidine-3-carboxylic acid {3-(5-chloro-2-difluoromethoxyphenyl)-1-[2-(5-cyclopropylmethylhexahydropyrrolo[3,4-c]pyrrol-2-yl)-2-oxoethyl]-1H-pyrazol-4-yl}amide] | 0.71 | 0.75 | 5.9 |
| CN1C[C@@H]2CN(C(=O)Cn3cc(NC(=O)c4cnn5ccc(N)nc45)c(-c4cc(Cl)ccc4OC(F)F)n3)C[C@@H]2C1 [Example 7, 5-Amino-pyrazolo[1,5-a]pyrimidine-3-carboxylic acid {3-(5-chloro-2-difluoromethoxy-phenyl)-1-[2-((3aR,6aS)-5-methyl-hexahydro-pyrrolo[3,4-c]pyrrol-2-yl)-2-oxo-ethyl]-1H-pyrazol-4-yl}-amide hydrochloride] | 1.1 | 0.96 | 1040 |
| Cc1cnc2c(C(=O)Nc3cn(CC(=O)N4C[C@H]5CN(C)C[C@H]5C4)nc3-c3cc(Cl)ccc3OC(F)F)cnn2c1 [Example 8, 6-Methyl-pyrazolo[1,5-a]pyrimidine-3-carboxylic acid {3-(5-chloro-2-difluoromethoxy-phenyl)-1-[2-((3aR,6aS)-5-methyl-hexahydro-pyrrolo[3,4-c]pyrrol-2-yl)-2-oxo-ethyl]-1H-pyrazol-4-yl}-amide hydrochloride] | 96.3 | 120 | 746 |
| CCN1CC2CN(C(=O)Cn3cc(NC(=O)c4c(N)nn5cccnc45)c(-c4cc(Cl)ccc4OC(F)F)n3)CC2C1 (stereo not drawn) [Example 11, 2-amino-N-[3-[5-chloro-2-(difluoromethoxy)phenyl]-1-[2-(2-ethyl-1,3,3a,4,6,6a-hexahydropyrrolo[3,4-c]pyrrol-5-yl)-2-oxo-ethyl]pyrazol-4-yl]pyrazolo[1,5-a]pyrimidine-3-carboxamide] | 1.05 | 0.3 | 11.8 |
| CC(C)N1C[C@H]2CN(C(=O)Cn3cc(NC(=O)c4cnn5cccnc45)c(-c4cc(Cl)ccc4OC(F)F)n3)C[C@H]2C1 [Example 12, N-[1-[2-[(3aS,6aR)-2-isopropyl-1,3,3a,4,6,6a-hexahydropyrrolo[3,4-c]pyrrol-5-yl]-2-oxo-ethyl]-3-[5-chloro-2-(difluoromethoxy)phenyl]pyrazol-4-yl]pyrazolo[1,5-a]pyrimidine-3-carboxamide] | 1.3 | 1.17 | 15 |
| O=C(Nc1cn(CC(=O)N2C[C@H]3CN(CCc4ccccc4)C[C@H]3C2)nc1-c1cc(Cl)ccc1OC(F)F)c1cnn2cccnc12 [Example 13, N-[1-[2-[(3aS,6aR)-2-(2-phenylethyl)-1,3,3a,4,6,6a-hexahydropyrrolo[3,4-c]pyrrol-5-yl]-2-oxo-ethyl]-3-[5-chloro-2-(difluoromethoxy)phenyl]pyrazol-4-yl]pyrazolo[1,5-a]pyrimidine-3-carboxamide] | 0.73 | 0.66 | 22 |
| O=C(Nc1cn(CC(=O)N2C[C@H]3CN(CCCO)C[C@H]3C2)nc1-c1cc(Cl)ccc1OC(F)F)c1cnn2cccnc12 [Example 14, N-[1-[2-[(3aR,6aS)-2-(3-hydroxypropyl)-1,3,3a,4,6,6a-hexahydropyrrolo[3,4-c]pyrrol-5-yl]-2-oxo-ethyl]-3-[5-chloro-2-(difluoromethoxy)phenyl]pyrazol-4-yl]pyrazolo[1,5-a]pyrimidine-3-carboxamide] | 1.14 | 1.13 | 335 |

The next lines start with the values.

| Ki [1] [nM] | Ki [2] [nM] | EC50 [3] [nM] | SMILES |
| --- | --- | --- | --- |
| 0.53 | 0.93 | 334 | O=C(Nc1cn(CC(=O)N2C[C@@H]3CN(C(=O)OCCCO)C[C@@H]3C2)nc1-c1cc(Cl)ccc1OC(F)F)c1cnn2cccnc12 [Example 15, 3-hydroxypropyl (3aR,6aS)-2-[2-[3-[5-chloro-2-(difluoromethoxy)phenyl]-4-(pyrazolo[1,5-a]pyrimidine-3-carbonylamino)pyrazol-1-yl]acetyl]-1,3,3a,4,6,6a-hexahydropyrrolo[3,4-c]pyrrole-5-carboxylate] |
| 0.62 | 0.56 | 8.1 | CN1C[C@@H]2CN(C(=O)Cn3cc(NC(=O)c4cnn5cccnc45)c(-c4cc(Cl)ccc4OC(F)F)n3)C[C@]2(c2ccccc2)C1 [Example 16, N-[1-[2-[(3aR,6aR)-2-methyl-3a-phenyl-3,4,6,6a-tetrahydro-1H-pyrrolo[3,4-c]pyrrol-5-yl]-2-oxo-ethyl]-3-[5-chloro-2-(difluoromethoxy)phenyl]pyrazol-4-yl]pyrazolo[1,5-a]pyrimidine-3-carboxamide] |
| 0.71 | 0.85 | 80.9 | O=C(Nc1cn(CC(=O)N2C[C@H]3CN(CC4CCN(C(=O)OCc5ccccc5)CC4)C[C@H]3C2)nc1-c1cc(Cl)ccc1OC(F)F)c1cnn2cccnc12 [Example 17, benzyl 4-[[(3aR,6aS)-5-[2-[3-[5-chloro-2-(difluoromethoxy)phenyl]-4-(pyrazolo[1,5-a]pyrimidine-3-carbonylamino)pyrazol-1-yl]acetyl]-1,3,3a,4,6,6a-hexahydropyrrolo[3,4-c]pyrrol-2-yl]methyl]piperidine-1-carboxylate] |
| 0.56 | 0.56 | 274 | O=C(Nc1cn(CC(=O)N2C[C@H]3CN(CCCN4CCCC4=O)C[C@H]3C2)nc1-c1cc(Cl)ccc1OC(F)F)c1cnn2cccnc12 [Example 18, N-[1-[2-[(3aR,6aS)-2-[3-(2-oxopyrrolidin-1-yl)propyl]-1,3,3a,4,6,6a-hexahydropyrrolo[3,4-c]pyrrol-5-yl]-2-oxo-ethyl]-3-[5-chloro-2-(difluoromethoxy)phenyl]pyrazol-4-yl]pyrazolo[1,5-a]pyrimidine-3-carboxamide] |
| 0.72 | 0.71 | 379 | O=C(Nc1cn(CC(=O)N2C[C@H]3CN(CCCN4CCOCC4)C[C@H]3C2)nc1-c1cc(Cl)ccc1OC(F)F)c1cnn2cccnc12 [Example 19, N-[1-[2-[(3aR,6aS)-2-(3-morpholinopropyl)-1,3,3a,4,6,6a-hexahydropyrrolo[3,4-c]pyrrol-5-yl]-2-oxo-ethyl]-3-[5-chloro-2-(difluoromethoxy)phenyl]pyrazol-4-yl]pyrazolo[1,5-a]pyrimidine-3-carboxamide] |
| 0.51 | 1.21 | 344 | O=C(Nc1cn(CC(=O)N2CC[C@@H]3CNCC[C@@H]32)nc1-c1cc(Cl)ccc1OC(F)F)c1cnn2cccnc12 [Example 20, N-[1-[2-[(3aR,7aS)-2,3,3a,4,5,6,7,7a-octahydropyrrolo[3,2-c]pyridin-1-yl]-2-oxo-ethyl]-3-[5-chloro-2-(difluoromethoxy)phenyl]pyrazol-4-yl]pyrazolo[1,5-a]pyrimidine-3-carboxamide] |
| 0.47 | 1.16 | 3040 | O=C(Nc1cn(CC(=O)N2CC[C@H]3CNC[C@H]3C2)nc1-c1cc(Cl)ccc1OC(F)F)c1cnn2cccnc12 [Example 21, N-[1-[2-[(3aS,7aR)-1,2,3,3a,4,6,7,7a-octahydropyrrolo[3,4-c]pyridin-5-yl]-2-oxo-ethyl]-3-[5-chloro-2-(difluoromethoxy)phenyl]pyrazol-4-yl]pyrazolo[1,5-a]pyrimidine-3-carboxamide] |
| 0.94 | 0.95 | 158 | CC(=O)N1CCC(CN2C[C@@H]3CN(C(=O)Cn4cc(NC(=O)c5cnn6cccnc56)c(-c5cc(Cl)ccc5OC(F)F)n4)C[C@@H]3C2)CC1 [Example 22, N-[1-[2-[(3aS,6aR)-2-[(1-acetyl-4-piperidyl)methyl]-1,3,3a,4,6,6a-hexahydropyrrolo[3,4-c]pyrrol-5-yl]-2-oxo-ethyl]-3-[5-chloro-2-(difluoromethoxy)phenyl]pyrazol-4-yl]pyrazolo[1,5-a]pyrimidine-3-carboxamide] |
| 0.7 | 0.81 | 8.6 | CCOC(=O)N1CCC(CN2C[C@@H]3CN(C(=O)Cn4cc(NC(=O)c5cnn6cccnc56)c(-c5cc(Cl)ccc5OC(F)F)n4)C[C@@H]3C2)CC1 [Example 23, ethyl 4-[[(3aS,6aR)-5-[2-[3-[5-chloro-2-(difluoromethoxy)phenyl]-4-(pyrazolo[1,5-a]pyrimidine-3-carbonylamino)pyrazol-1-yl]acetyl]-1,3,3a,4,6,6a-hexahydropyrrolo[3,4-c]pyrrol-2-yl]methyl]piperidine-1-carboxylate] |
